System: K. pneumoniae 700603
Assay: Antimicrobial activity assay, microdilution
Assay type: cell-based, Klebsiella pneumoniae
Details: concentration range from 0.5 µg/mL to 256 µg/mL
Description: In vitro antimicrobial and antifungal activity was screened using microdilution and modified Richard’s medium. The assay was performed for compounds 4a, 4b, 4c, and 4d with seven reference microbial strains from ATTC (E. coli 25922, S. aureus 43300, K. pneumoniae 700603, A. baumannii 19606, P. aeruginosa 27853, E. faecalis 29212, and C. albicans 10231).
Seven reference strains from the ATCC collection (Escherichia coli 25922, Staphylococcus aureus 43300, Klebsiella pneumoniae 13883, Acinetobacter baumannii 19606, Pseudomonas aeruginosa 27853, Enterococcus faecalis 29212, and Candida albicans 10231) were used. The assay was performed according to a modified version of Richard et al.’s protocol and ISO standards 20776-1:2019 and 16256:2021 [78, 79]. Microdilution with spectrophotometric measurement was used to calculate MIC50 (minimal inhibitory concentration which decreased the microorganisms’ viability to 50%) values. Briefly, compounds were prepared 100× concentrated in DMSO, and during the whole experiment, they were diluted to 1× with TSB. Serial dilutions of tested compounds were made directly on plates at a concentration range of 0.5 to 256 µg/mL. Microorganisms were incubated for 24 h at 37 °C (bacteria) or 25 °C (yeast) on Petri dishes with TSA. The bacteria/yeast suspensions were prepared at a density 5 × 10^5 CFU/mL (for bacteria) or 0.5–2.5 × 10^5 CFU/mL (for yeast) with TSB. Also, appropriate controls were contained in the experiment: the positive control consisted of a specific strain in TSB, and the negative control was TSB alone. To ensure that used strains were not modified and were still responding to antibacterial/antifungal compounds established by EUCAST, additional tests were conducted with levofloxacin, gentamicin, and amphotericin B. Microplates were incubated on a shaker for 24 h at 37 ± 1 °C or 25 ± 1 °C for the bacteria and yeast strains, respectively. After the incubation, spectrophotometric measurement was performed at 580 nm. MIC50 was calculated by comparing the results obtained for experimental sets with positive controls. Next, 50 µL aliquots of 1% (m/v) TTC solution were added to each well. The plates were incubated on the shaker for 24 h at 37/25 °C. In living microbial cells, colourless TTC is converted into red formazan crystals, which allows for visual observation and MBC/MFC (minimal bactericidal/fungicidal concentration) value assessment.

Cc1nc(-c2ccccc2)nc(Nc2ccc(F)cc2)c1C=Nc1cccc(Cl)c1 [compound 4b, 5-{[(3-chlorophenyl)imino]methyl}-N-(4-fluorophenyl)-6-methyl-2-phenylpyrimidin-4-amine] was tested, and the “MIC and MBC/MFC activity” value was “Neither MIC nor MBC/MFC activity was observed”.
